By IC50 is commonly meant the point on the concentration scale where inhibition reaches its midpoint.

Experiment [1] deals with chitinase from Candida albicans. Briefly: Assay for chitinase inhibitory activity, chitinase from Candida albicans (4MBTC fluorescence). The experiment is classed as biochemical, Candida albicans ATCC 10231. The note with it: bis-Tris buffer pH 6.5, 37° C., 30 minutes, substrate 4MBTC. As to the method: The chitinase from Candida albicans (C. albicans) was prepared by the following method. Firstly, a Sabouraud medium (pH 5.6) composed of 4 g of glucose, 1 g of polypeptone and 100 ml of water was prepared and placed in an Erlenmeyer flask of 500 ml volume. After sterilization at 120° C. for 20 minutes, one platinum loop of slant culture cells of C. albicans ATCC 10231 was inoculated into the medium, and then shake cultured at 37° C. for 2 days to obtain a primary seed mother liquor.
In a second procedure, 1 liter of Sabouraud medium having the same composition as above was prepared. Separately, 100 ml of the medium was added to each of ten 500 ml Erlenmeyer flasks, then the flasks and their contents were sterilized at 120° C. for 20 minutes. Thereafter, 2 ml of the primary seed mother liquor described above was added to each flask. The flask was shaken at 37° C. for 2 days to obtain a secondary seed mother liquor.
In a third procedure, 50 liters of Sabouraud medium having the same composition as described above was prepared and added to a culture tank of 100 liter volume. The tank and its contents were sterilized at 120° C. for 30 minutes. In the tank, 1 liter of the secondary seed mother liquor described above was added. Shake culturing was then conducted at 37° C. for 15 hours. At this stage, the stirring velocity was 140 rpm and the aerial rate was 10 l/min. The resulting culture broth was centrifuged by a sharpless centrifuging machine to recover the cells. The wet weight of the thus obtained cells was 250 g.
The cells were suspended in 800 ml of a buffer for cell homogenization (50 mM bis-Tris, 0.25M saccharose, 1 mM disodium ethylenediaminetetraacetate, pH 6.5). The suspension was twice passed through a Dyno-mill disintegrator (beads: MK-2GX, 0.25-0.5 mm) to disrupt the cells, and the supernatant was recovered. The supernatant was centrifuged at 9000 g for 30 minutes, then further super-centrifuged at 152,000 g for an hour. The supernatant thereof was recovered, and was concentrated to about one-fifth of the volume by ultrafiltration (Toyo Ultrafilter UP-20), having an excluding limiting molecular weight of 20,000. The concentrate was used as the crude chitinase solution from Candida albicans in the assay described in procedure (ii) below.
(§1) In a 20 ml vial bottle, 50 μl of the chitinase solution from Candida albicans prepared as described above,s 50 μl of 100 μg/ml aqueous 4-methylumbelliferyl β-D-N,N',N"-triacetyl-chitotrioside (hereinafterabbreviated as 4MBTC, SIGMA Co.), 75 μl of 50 mM bis-Tris buffer (pH 6.5) and 25 μl of 0.1N acetic acid were added and mixed. The reaction was carried out at 37° C. for 30 minutes. As a blank, the reaction was carried out in an identical manner, substituting 50 mM bis-Tris buffer (pH 6.5) for the enzyme solution. After the reaction, sufficient 0.5M glycine-sodium hydroxide buffer (pH 10.4) was added to make the total volume 5 ml. Then, the fluorescent intensity was determined with a fluorophotometer (manufactured by Hitachi Ltd., MPF-4). The excited wavelength was 350 nm, and the fluorescent wavelength was 400 nm. Chitinase activity was determined using the difference in the fluorescent intensity between the read-out data from the sample containing the enzyme and the blank read-out data.
(§2) In determining the inhibitory activity of AJI9463A, AJI9463B, AJI9463C, and the partially hydrolyzed disaccharides thereof, each compound was dissolved in 0.1N acetic acid, and 25 μl of the compound solution was substituted for the 25 μl of 0.1N acetic acid in the reaction system described above. Further, in determining the inhibitory activity against the chitinases of baker's yeast and Trichoderma sp., the assay was performed by changing the buffer in the reaction system described above from 50 mM bis-Tris buffer (pH 6.5) to 0.1M citrate buffer (pH 3.0) and MclLvanine buffer (pH 5.2), respectively.

Experiment [2] addresses T1, chitinase from baker's yeast (S cerevisiae) (Saccharomyces cerevisiae, UniProt P29029).
T1 construct: was shaken at 30° C. for 2 hours at 120 spm to extract the enzyme; host or cells: commercial baker's yeast, digitonin extract
T1 sequence (P29029 21-562): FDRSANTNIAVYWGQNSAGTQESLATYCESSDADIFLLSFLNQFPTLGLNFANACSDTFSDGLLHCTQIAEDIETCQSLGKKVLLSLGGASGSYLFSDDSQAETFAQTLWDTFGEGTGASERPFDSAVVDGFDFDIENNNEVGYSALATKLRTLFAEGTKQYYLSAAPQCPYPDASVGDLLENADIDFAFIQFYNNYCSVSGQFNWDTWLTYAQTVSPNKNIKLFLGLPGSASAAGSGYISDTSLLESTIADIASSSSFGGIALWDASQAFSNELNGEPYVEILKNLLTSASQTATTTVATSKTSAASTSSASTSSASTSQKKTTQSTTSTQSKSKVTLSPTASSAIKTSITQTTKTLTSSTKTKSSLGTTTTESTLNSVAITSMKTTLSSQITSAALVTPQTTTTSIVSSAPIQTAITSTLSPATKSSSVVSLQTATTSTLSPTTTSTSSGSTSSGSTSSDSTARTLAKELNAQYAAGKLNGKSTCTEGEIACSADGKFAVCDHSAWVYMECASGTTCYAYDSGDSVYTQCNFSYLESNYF
Kind of experiment: Assay for chitinase inhibitory activity, chitinase from baker's yeast. The format is biochemical. The note with it: 0.1M citrate buffer pH 3.0, substrate 4MBTC. As for the experimental part: The chitinase from baker's yeast (S cerevisiae) was prepared by the following method. Firstly, 400 g of baker's yeast (manufactured by Kanegafuchi Chemical Industry Co., Ltd.) was suspended in buffer for enzyme extraction (0.1% digitonin: manufactured by Wako Pure Chemical Industry Co., Ltd.), 0.1% β-mercaptoethanol and 2 liters of 25 mM MES (manufactured by Nakarai Chemical Co., Ltd.), and was shaken at 30° C. for 2 hours at 120 spm to extract the enzyme. The extract was centrifuged at 12,000 g for 10 minutes and the supernatant was recovered. The supernatant was concentrated to about one-fifth of the volume by ultrafiltration (UP-20). After 800 ml of sodium citrate buffer (obtained by adding 0.15M aqueous sodium citrate to 0.15M aqueous citric acid, and adjusting the pH to 3.0) was added to the concentrate, the precipitates were removed by centrifugation (0° C., 12,000 g, 10 minutes). The supernatant was again concentrated by ultrafiltration (UP-20) to about 80 ml. The resulting concentrate was used as the chitinase from baker's yeast in the assay described in procedure (ii) below.
as §1, §2

Experiment [3] deals with chitinase from Trichoderma sp. (Chitinase T-1). Kind of experiment: Assay for chitinase inhibitory activity, chitinase from Trichoderma sp. The experiment is classed as biochemical. Conditions: McIlvaine buffer pH 5.2, substrate 4MBTC. As to the method:
The chitinase from Trichoderma sp. was provided for use in the assay described in procedure (ii) below by diluting commercially available Chitinase T-1 (manufactured by Asahi Industry Co., Ltd.) with MclIvanine buffer (obtained by adding 0.2M aqueous disodium hydrogen phosphate to 0.1M aqueous citric acid and adjusting the pH to 5.2) to a concentration of 50 μg/ml.
as §1, §2

Experiment [4] concerns silkworm-derived chitinase. Conditions: background statement; cited from earlier work.
Experiment [5] relates to endo-type chitinase of insects. The note with it: background statement; cited from earlier work.
Another experiment concerns fungi-derived chitinase. Conditions: background statement; cited from earlier work.
Experiment [6] addresses chitinase from baker's yeast (Saccharomyces cerevisiae) (Saccharomyces cerevisiae, UniProt P29029). The note with it: background statement; cited from earlier work.
Experiment [7] has as its system chitinase of pathogenic fungi such as Candida albicans. The note with it: background statement; cited from earlier work.

As for `COC[C@H]1O[C@@H](O[C@H]2[C@@H](O)[C@@H](NC(C)=O)[C@H](OC3C(O)C4N=C(N(C)C)OC4C3CO)O[C@@H]2CO)[C@H](NC(C)=O)[C@H](O)[C@@H]1O` (some centres unmarked) [Methylallosamidin, methylallosamidin, reference compound], in experiment [1], the “Chitinase Inhibitory Activity IC50, C. albicans” value is 8.8 µg/mL. The compound also showed an IC50 in experiment [2] of 58.4 µM. The “Chitinase Inhibitory Activity IC50, Trichoderma sp.” value in experiment [3] stood at 1.2 µg/mL. In experiment [4], the “Inhibition of silkworm-derived chitinase” value is reported as “inhibitors”. Further, the “Inhibition of endo-type chitinase of insects” value in experiment [5] is given as “strongly inhibit”. In addition, the “Inhibitory activity against fungi-derived chitinase” value in the experiment on fungi-derived chitinase was “weak inhibitory activity”.
For `CNC1=N[C@@H]2[C@@H](O)[C@H](O[C@@H]3O[C@H](CO)[C@@H](O[C@@H]4O[C@H](CO)[C@@H](O)[C@@H](O)[C@H]4NC(C)=O)[C@@H](O)[C@H]3NC(C)=O)[C@@H](CO)[C@@H]2O1` [Demethylallosamidin, demethylallosamidin], the “Inhibitory activity against chitinase from baker's yeast” value in experiment [6] is “potent inhibitory activity”. Moreover, in experiment [7], the “Inhibitory activity against chitinase of Candida albicans” value is reported as “insufficient”.

The record behind these values is patent US5413991A (Ajinomoto Co., Inc., priority 1991, dated 1995).
